Patent US8633204B2 (Pfizer Inc., priority 2006, dated 2014)
Entries after “also recorded” stand apart in the source; their conditions may differ.

Legend:
[1] = system: PI3-K in BT20 cells (phosphorylation of AKT at serine 473); assay: PI3-Kα Cellular Assay (AKT Ser473 phosphorylation ELISA in BT20 cells); type: cell-based, human; settings: Homo sapiens, BT-20, pAKT Ser473 ELISA, 1 hour incubation
In short: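 Cells seeded overnight in 0.5% FBS, then exposed 1 h at 37 °C to an 11-concentration 1:3 dilution series, in duplicate.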

SKOV3 tumor model = assay: Mouse xenograft efficacy study, SKOV3; type: in vivo; settings: for Growth Inhibition (%): SKOV3 ovarian xenograft
Experimental: The in vivo efficacy of 2-amino-8-(trans-4-hydroxycyclohexyl)-6-(6-methoxypyridin-3-yl)-4-methylpyrido[2,3-d]pyrimidin-7(8H)-one (Compound 152) disclosed in Example 53 was examined in s.c. xenograft model. Human tumor cell lines PC3 (PTEN deletion)), U87MG (PTEN deletion) and SKOV3 (PI3Kα […]) were chosen for in vivo efficacy studies due to their different genetic background and relatively high levels of phospho AKT S473 signal. Cells were implanted in the hind flank of athymic mice and tumors grew in size to 100-200 mm^3 before daily oral treatment with Compound 152 was initiated. […] For all models tested 1 mg/kg was an efficacious dose.
Animal Care: Female and male athymic mice (6-8 weeks old) weighing ˜22 g were obtained from Charles River Laboratory. Animal were housed on a 12 h light/dark cycle in the Pfizer vivarium and all procedures are conducted in accordance with the Pfizer Institutional Animal Care and Use Committee (IACUC). Animals are provided free access to rodent chow and water ad libitum and maintained under clean room conditions. Prior to study start animals acclimate for at least 48 h.
Cell lines: All cell lines were cultured at 37° C. in humidified 5% CO2 incubator. U87 MG glioblastoma tumor cell line was obtained from American Type Culture Collection (ATCC) and cultured with DMEM supplemented with 15% FBS and 2 mM glutamine. PC3 prostate cancer cell line were obtained from National Cancer Institute and cultured in RPMI media supplemented with 10% FBS and 2 mM glutamine. SKOV3 ovarian cancer cells were obtained from ATCC and passaged multiple times through mice, and cultured in McCoy's 5A media supplemented with 10% FBS and 2 mM glutamine. All cell lines were tested by University of Missouri Research Animal Diagnostic Laboratory for known species of murine viruses and mycoplasma contamination.
Mouse Xenograft Models: U87MG (glioblastoma), PC3 (prostate cancer) and SKOV3 (ovarian cancer) cell lines in culture were harvested by trypsinisation. Briefly, 2.5−4×10^6 tumor cells were suspended in the medium used to culture each cell line without serum and implanted sub-cutaneously (s.c) into the hind flank region of mice on day 0. Daily treatment with Compound 152, formulated in 10% ethanol, 40% PEG and 50% sodium citrate buffer or vehicle alone commenced 10-14 d after implantation when average tumors were 100-200 mm^3 in size. Tumors were measured twice weekly and tumor volume was calculated as a product of (length×width^2)/2. Studies were typically terminated when the tumor in the vehicle treated animals reached a size of >1500 mm3 or when judged to adversely affect the well being of the animal. […] Where applicable, percent tumor regression for each group was calculated as 100×(tumor volumeinitial−tumor volumefinal)/(tumor volumeinitial). A cohort of 12 animals was used for each dose group for efficacy studies. A representative cohort of animals were sacrificed at the times indicated, tumors resected, and a blood sample taken from the cardiac left ventricle and immediately placed in a vial primed with heparin sulfate. Typically one half of the tumor was fixed in 10% neutral buffered formalin, paraffin embedded, and sectioned for immunohistochemistry. The other half was frozen in liquid nitrogen and later processed to generate cell lysates for target modulation studies.

[2] = SKOV3 tumor model, daily oral treatment

IC50 [1]: 3.6 nM
SMILES: COc1ccc(-c2cc3c(C)nc(N)nc3n([C@H]3CC[C@H](O)CC3)c2=O)cn1 [Compound 152, 2-amino-8-(trans-4-hydroxycyclohexyl)-6-(6-methoxypyridin-3-yl)-4-methylpyrido[2,3-d]pyrimidin-7(8H)-one]
Growth Inhibition (%) (SKOV3 tumor model; 0.5 mg/kg/day oral): 46%
Growth Inhibition (%) (SKOV3 tumor model; 1 mg/kg/day oral): 66%
Growth Inhibition (%) (SKOV3 tumor model; 2 mg/kg/day oral): 82%
anti-tumor efficacy (SKOV3 tumor model; [2]): dose-dependent anti-tumor efficacy; also recorded: growth inhibition
efficacious dose (SKOV3 tumor model; [2]): 1 mg/kg
